Results reported in patent US20230002361A1, “2H-INDAZOLE DERIVATIVES AND THEIR USE IN THE TREATMENT OF DISEASE” (BIOGEN MA INC., priority 2019, published 2023).
Structures can show the parent of a compound that is named as a salt.

Columns and labels:
IRAK4 = target: T1, IRAK4 (Homo sapiens, UniProt Q9NWZ3); experiment: IRAK4 MSD Biochemical Assay (1 mM ATP, 2 h); conditions: room temperature, read-out: IRAK4 MSD Biochemical Assay (1 mM ATP, 2 h) IC50
T1 construct: with 0.1 nM IRAK4, 1.6 μM of biotinylated peptide substrate and 10 μM ATP
T1 sequence (Q9NWZ3 1-460): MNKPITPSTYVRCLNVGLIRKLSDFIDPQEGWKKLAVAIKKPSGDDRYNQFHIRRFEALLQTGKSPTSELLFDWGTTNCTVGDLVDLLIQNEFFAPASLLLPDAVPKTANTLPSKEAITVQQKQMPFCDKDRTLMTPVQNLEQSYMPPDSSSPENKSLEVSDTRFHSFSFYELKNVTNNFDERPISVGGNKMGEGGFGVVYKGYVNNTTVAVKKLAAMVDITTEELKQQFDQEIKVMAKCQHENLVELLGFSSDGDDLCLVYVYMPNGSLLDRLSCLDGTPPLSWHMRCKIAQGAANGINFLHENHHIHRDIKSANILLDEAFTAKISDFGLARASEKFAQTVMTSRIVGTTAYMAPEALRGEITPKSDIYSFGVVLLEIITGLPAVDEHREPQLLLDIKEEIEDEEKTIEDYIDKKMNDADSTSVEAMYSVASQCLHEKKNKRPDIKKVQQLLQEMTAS
Protocol: The 2-hour 10 μM ATP Biochemical Assay employs a MesoScale Detection (MSD) format.
The activity is quenched with 11 μl of 70 mM EDTA, pH 8.
To detect the phosphorylated biotinylated peptide substrate, 30 μl of the quenched reaction mixture is added to equivalent wells of a 384 well streptavidin coated MesoScale plate (Meso Scale Discovery #L21SA-1). After a 1 hour incubation of the plate for 1 hour at room temperature with gentle mixing, the plate wells are washed 3 times with 50 mM Tris, pH 7.5, 150 mM NaCl, 0.02% Tween-20.
A 25 μl volume of 1:500 anti-P-Threonine Rabbit polyclonal Antibody plus 1:500 Goat-anti-Rabbit Sulfo Tag Antibody (Meso Scale Discovery R32AB-1) in 50 mM Tris, pH 7.5, 150 mM NaCl, 0.02% Tween-20 plus 2% BSA is then added to each well. After a 1-hour incubation of the plate for 1 hour at room temperature with gentle mixing, the plate wells are washed, 3 times with 50 mM Tris, pH 7.5, 150 mM NaCl, 0.02% Tween-20. A 40 μl volume of 2×MSD Read Buffer (Meso Scale Discovery R92TC-1) is added to each well, and the plate is read immediately in an MSD Plate Reader (Meso Scale Discovery).
The 2-hour 1 mM ATP IRAK4 Biochemical assay was performed as described above, but with […] IRAK4 and 1 mM ATP.

MDR1 (P-gp) = target: T2, MDR1 (P-gp) (Homo sapiens, UniProt P08183); experiment: MDR1-MDCK assay (efflux ratio); type: in vitro ADME; conditions: human, MDCK-MDR1, 1 μM compound, 120 minutes incubation; read-out: MDR1-MDCK Efflux Ratio; (B-A/A-B)
T2 construct: host or cells: MDCK cells
T2 sequence (P08183 whole entry): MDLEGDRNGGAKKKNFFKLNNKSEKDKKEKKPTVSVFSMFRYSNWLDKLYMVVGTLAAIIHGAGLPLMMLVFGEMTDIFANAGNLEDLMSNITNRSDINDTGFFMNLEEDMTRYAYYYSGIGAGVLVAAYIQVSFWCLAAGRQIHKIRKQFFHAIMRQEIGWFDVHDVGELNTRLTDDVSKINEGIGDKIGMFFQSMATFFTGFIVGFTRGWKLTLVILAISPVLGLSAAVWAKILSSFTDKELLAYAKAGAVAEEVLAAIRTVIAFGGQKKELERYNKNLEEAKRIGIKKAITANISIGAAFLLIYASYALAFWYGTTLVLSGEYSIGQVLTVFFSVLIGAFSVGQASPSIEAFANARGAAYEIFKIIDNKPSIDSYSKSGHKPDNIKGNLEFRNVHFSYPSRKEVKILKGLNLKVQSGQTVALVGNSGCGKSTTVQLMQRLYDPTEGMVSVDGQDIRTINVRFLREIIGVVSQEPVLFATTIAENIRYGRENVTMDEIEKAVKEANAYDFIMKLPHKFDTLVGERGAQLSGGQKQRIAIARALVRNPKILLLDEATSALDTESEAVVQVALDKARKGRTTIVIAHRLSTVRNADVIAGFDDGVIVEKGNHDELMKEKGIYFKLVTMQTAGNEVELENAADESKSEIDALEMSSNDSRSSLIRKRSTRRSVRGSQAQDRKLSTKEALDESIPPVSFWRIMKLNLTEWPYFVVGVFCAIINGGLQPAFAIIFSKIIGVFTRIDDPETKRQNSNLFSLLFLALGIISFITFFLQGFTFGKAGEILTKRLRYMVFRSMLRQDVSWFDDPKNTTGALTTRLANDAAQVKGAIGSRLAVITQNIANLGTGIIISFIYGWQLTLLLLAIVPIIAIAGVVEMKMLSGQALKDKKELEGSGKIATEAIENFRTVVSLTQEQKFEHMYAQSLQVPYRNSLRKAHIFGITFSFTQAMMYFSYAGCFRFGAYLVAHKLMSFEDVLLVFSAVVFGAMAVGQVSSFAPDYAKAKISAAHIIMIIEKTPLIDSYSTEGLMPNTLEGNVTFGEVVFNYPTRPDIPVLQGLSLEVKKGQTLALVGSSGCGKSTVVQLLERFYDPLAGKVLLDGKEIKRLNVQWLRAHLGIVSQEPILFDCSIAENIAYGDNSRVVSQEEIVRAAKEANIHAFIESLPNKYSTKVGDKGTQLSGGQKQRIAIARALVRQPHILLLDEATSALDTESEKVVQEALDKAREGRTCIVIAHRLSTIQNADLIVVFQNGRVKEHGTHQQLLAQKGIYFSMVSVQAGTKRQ
Protocol: • The assay makes use of human MDR1 transfected MDCK cells (NIH cell line in-licensed from Absorption Systems) • The compounds are tested at 1 μM concentration prepared in transport buffer (Hank's balanced salt solution with HEPES) • MDR1-MDCK cell are cultured for 7 days in 96 well transwell insert plates (Corning). Insert plates are washed before the assay and TEER (Trans epithelial electric resistance) is measured. • These plates are loaded with test compound solution 85 μL for A-B transport and 260 μL for B-A transport in the respective donor compartment.
Mass balance=100×((Vr×Cr^final)+(Vd×Cd^final))/(Vd×CE) • Where: • dCr/dt is the cumulative concentration in the receiver compartment versus time in μM s^−1 • Vr is the volume of the receiver compartment in cm^3 • Vd is the volume of the donor compartment in cm^3 • A is the area of the insert (0.143 cm^2 for 96-well insert) • CE is the estimated experimental concentration (Time=0) of the dosing solution • Cr^final is the concentration of the receiver at the end of the incubation period • Cd^final is the concentration of the donor at the end of the incubation period.

`CC(C)Oc1cc2nn([C@]34CC[C@](C)(C3)OC4)cc2cc1C(=O)Nc1cccc(C(F)F)n1` (single isomer, unassigned) [Example 125] gave an IC50 (IRAK4) of 0.4 nM and an efflux ratio at 120 min, 1 μM (MDR1 (P-gp)) of 0.5.
For `CC(C)Oc1cc2nn([C@@]34CC[C@@](C)(C3)OC4)cc2cc1C(=O)Nc1cccc(C(F)F)n1` (single isomer, unassigned) [Example 126], the IC50 (IRAK4) was 0.2 nM and the efflux ratio at 120 min, 1 μM (MDR1 (P-gp)) was 0.5.
Compound `CC(C)Oc1cc2nn([C@]34CC[C@](C)(C3)OC4)cc2cc1C(=O)Nc1cnn2cccnc12` (single isomer, unassigned) [Example 127] has an IC50 (IRAK4) of 0.4 nM and an efflux ratio at 120 min, 1 μM (MDR1 (P-gp)) of 1.
`CC(C)Oc1cc2nn([C@@]34CC[C@@](C)(C3)OC4)cc2cc1C(=O)Nc1cnn2cccnc12` (single isomer, unassigned) [Example 128] was tested, and the IC50 (IRAK4) was 0.5 nM and the efflux ratio at 120 min, 1 μM (MDR1 (P-gp)) was 1.4.
`Cn1ccc(NC(=O)c2cc3cn(C4CCCOC4)nc3nc2OC2CCC2)n1` (single isomer, unassigned) [Example 129] was tested, and the IC50 (IRAK4) was 5.7 nM and the efflux ratio at 120 min, 1 μM (MDR1 (P-gp)) was 3.4.
`Cc1cnc2c(NC(=O)c3cc4cn(C5CCCOC5)nc4nc3OC3CCC3)cnn2c1` (single isomer, unassigned) [Example 131] gave an IC50 (IRAK4) of 0.2 nM and an efflux ratio at 120 min, 1 μM (MDR1 (P-gp)) of 2.6.
`Cc1ccn2ncc(NC(=O)c3cc4cn(C5CCCOC5)nc4nc3OC3CCC3)c2n1` (single isomer, unassigned) [Example 133] showed an IC50 (IRAK4) of 1.7 nM and an efflux ratio at 120 min, 1 μM (MDR1 (P-gp)) of 2.6.
In the case of `CC12CCC(n3cc4cc(C(=O)Nc5cnn6cccnc56)c(OC5CCC5)cc4n3)(CO1)C2` (single isomer, unassigned) [Example 137], the IC50 (IRAK4) is reported as 0.2 nM and the efflux ratio at 120 min, 1 μM (MDR1 (P-gp)) is reported as 2.1.
`COc1cccc(NC(=O)c2cc3cn(CC4CCOC4)nc3cc2OC)n1.O=C(O)C(F)(F)F` (centres unmarked) [Example 1, 6-Methoxy-N-(6-methoxypyridin-2-yl)-2-((tetrahydrofuran-3-yl)methyl)-2H-indazole-5-carboxamide Trifluoroacetate] showed an IC50 (IRAK4) of 32.7 nM and an efflux ratio at 120 min, 1 μM (MDR1 (P-gp)) of 1.1.
Compound `COc1cc2nn(CC3CCOC3)cc2cc1C(=O)Nc1ccccn1.O=C(O)C(F)(F)F` (centres unmarked) [Example 2, 6-Methoxy-N-(pyridin-2-yl)-2-((tetrahydrofuran-3-yl)methyl)-2H-indazole-5-carboxamide trifluoroacetate] has an IC50 (IRAK4) of 373 nM and an efflux ratio at 120 min, 1 μM (MDR1 (P-gp)) of 1.7.
`COc1cccc(NC(=O)c2cc3cn(CC45COC(C)(C4)C5)nc3cc2OC)n1.O=C(O)C(F)(F)F` [Example 3, 6-Methoxy-N-(6-methoxypyridin-2-yl)-2-((1-methyl-2-oxabicyclo[2.1.1]hexan-4-yl)methyl)-2H-indazole-5-carboxamide trifluoroacetate] gave an IC50 (IRAK4) of 10000 nM and an efflux ratio at 120 min, 1 μM (MDR1 (P-gp)) of 0.9.
For `COc1cccc(NC(=O)c2cc3cn(C4CCOC4)nc3cc2OC)n1.O=C(O)C(F)(F)F` (centres unmarked) [Example 4, 6-Methoxy-N-(6-methoxypyridin-2-yl)-2-(tetrahydrofuran-3-yl)-2H-indazole-5-carboxamide trifluoroacetate], the IC50 (IRAK4) was 3380 nM and the efflux ratio at 120 min, 1 μM (MDR1 (P-gp)) was 0.4.
For `COc1cccc(NC(=O)c2cc3cn(C4CCOCC4)nc3cc2OC)n1.O=C(O)C(F)(F)F` [Example 5, 6-Methoxy-N-(6-methoxypyridin-2-yl)-2-(tetrahydro-2H-pyran-4-yl)-2H-indazole-5-carboxamide trifluoroacetate], the IC50 (IRAK4) was 21 nM and the efflux ratio at 120 min, 1 μM (MDR1 (P-gp)) was 0.6.
`COc1cc2nn(C3CCOCC3)cc2cc1C(=O)Nc1ccccn1.O=C(O)C(F)(F)F` [Example 6, 6-Methoxy-N-(pyridin-2-yl)-2-(tetrahydro-2H-pyran-4-yl)-2H-indazole-5-carboxamide trifluoroacetate] gave an IC50 (IRAK4) of 187 nM and an efflux ratio at 120 min, 1 μM (MDR1 (P-gp)) of 1.1.
In the case of `COc1cccc(NC(=O)c2cc3cn(CC4CCOC4)nc3cn2)n1.O=C(O)C(F)(F)F` (centres unmarked) [Example 7, N-(6-methoxypyridin-2-yl)-2-((tetrahydrofuran-3-yl)methyl)-2H-pyrazolo[3,4-c]pyridine-5-carboxamide Trifluoroacetate], the IC50 (IRAK4) is reported as 1390 nM and the efflux ratio at 120 min, 1 μM (MDR1 (P-gp)) is reported as 0.6.
Work on `O=C(Nc1cccc(C(F)F)n1)c1cc2cn(CC3CCOC3)nc2cn1` (centres unmarked) [Example 8, N-(6-(difluoromethyl)pyridin-2-yl)-2-((tetrahydrofuran-3-yl)methyl)-2H-pyrazolo[3,4-c]pyridine-5-carboxamide Trifluoroacetate] yielded an IC50 (IRAK4) of 275 nM and an efflux ratio at 120 min, 1 μM (MDR1 (P-gp)) of 0.6.
`COc1cccc(NC(=O)c2cc(C)c3nn(CC4CCOC4)cc3c2)n1.O=C(O)C(F)(F)F` (centres unmarked) [Example 9, N-(6-methoxypyridin-2-yl)-7-methyl-2-((tetrahydrofuran-3-yl)methyl)-2H-indazole-5-carboxamide Trifluoroacetate] gave an IC50 (IRAK4) of 2740 nM and an efflux ratio at 120 min, 1 μM (MDR1 (P-gp)) of 0.5.
In the case of `CC(C)Oc1cc2nn(CCC(C)(C)O)cc2cc1C(=O)Nc1cccc(C(F)F)n1` [Example 13, N-(6-(difluoromethyl)pyridin-2-yl)-2-(3-hydroxy-3-methylbutyl)-6-isopropoxy-2H-indazole-5-carboxamide], the IC50 (IRAK4) is reported as 0.4 nM and the efflux ratio at 120 min, 1 μM (MDR1 (P-gp)) is reported as 1.7.
In the case of `COc1cccc(NC(=O)c2cc(OC)c3nn(CCC(C)(C)O)cc3c2)n1.Cl` [Example 14, 2-(3-Hydroxy-3-methylbutyl)-7-methoxy-N-(6-methoxypyridin-2-yl)-2H-indazole-5-carboxamide hydrochloride], the IC50 (IRAK4) is reported as 247 nM and the efflux ratio at 120 min, 1 μM (MDR1 (P-gp)) is reported as 24.4.
`COc1cccc(NC(=O)c2cc(OC)c3nn(CCC(C)(C)OC)cc3c2)n1.Cl` [Example 15, 7-Methoxy-2-(3-methoxy-3-methylbutyl)-N-(6-methoxypyridin-2-yl)-2H-indazole-5-carboxamide hydrochloride] showed an IC50 (IRAK4) of 124 nM and an efflux ratio at 120 min, 1 μM (MDR1 (P-gp)) of 2.5.
Work on `COc1cccc(NC(=O)c2cc(OC)c3nn(C4CCOCC4)cc3c2)n1.Cl` [Example 16, 7-Methoxy-N-(6-methoxypyridin-2-yl)-2-(tetrahydro-2H-pyran-4-yl)-2H-indazole-5-carboxamide hydrochloride] yielded an IC50 (IRAK4) of 211 nM and an efflux ratio at 120 min, 1 μM (MDR1 (P-gp)) of 3.
With `COCCCn1cc2cc(C(=O)Nc3cccc(C(F)F)n3)c(OC)cc2n1.Cl` [Example 17, N-(6-(difluoromethyl)pyridin-2-yl)-6-methoxy-2-(3-methoxypropyl)-2H-indazole-5-carboxamide hydrochloride] the IC50 (IRAK4) was 11.3 nM and the efflux ratio at 120 min, 1 μM (MDR1 (P-gp)) was 0.4.
In the case of `COc1cc2nn(C3CCOCC3)cc2cc1C(=O)Nc1cccc(C(F)F)n1.Cl` [Example 24, N-(6-(difluoromethyl)pyridin-2-yl)-6-methoxy-2-(tetrahydro-2H-pyran-4-yl)-2H-indazole-5-carboxamide Hydrochloride], the IC50 (IRAK4) is reported as 6.3 nM and the efflux ratio at 120 min, 1 μM (MDR1 (P-gp)) is reported as 0.7.
In the case of `CC(C)Oc1cc2nn(C3CCOCC3)cc2cc1C(=O)Nc1cccc(C(F)F)n1.Cl` [Example 25, N-(6-(difluoromethyl)pyridin-2-yl)-6-isopropoxy-2-(tetrahydro-2H-pyran-4-yl)-2H-indazole-5-carboxamide hydrochloride], the IC50 (IRAK4) is reported as 0.3 nM and the efflux ratio at 120 min, 1 μM (MDR1 (P-gp)) is reported as 0.6.
Work on `COCCCn1cc2cc(C(=O)Nc3cccc(C(F)F)n3)c(OC(C)C)cc2n1.Cl` [Example 26, N-(6-(difluoromethyl)pyridin-2-yl)-6-isopropoxy-2-(3-methoxypropyl)-2H-indazole-5-carboxamide hydrochloride] yielded an IC50 (IRAK4) of 0.9 nM and an efflux ratio at 120 min, 1 μM (MDR1 (P-gp)) of 0.7.
